Experiment in all cases: NCI-60 cell line screen, 48 h
In test [1] the test system is SF-539 CNS.
For test [2], the system named is A549 NSCLC.
For test [3], the system named is COLO 205 colon.
Test [4] relates to NCI-H460 lung.
Test [5] relates to NCI-H522 lung.
The test system of test [6] is MDA-MB-435.
Test [7] relates to SF-268 CNS.
Test [8] deals with U251 CNS.
The subject of test [9] is M14 melanoma.
Test [10] has as its system DU-145 prostate.

SMILES strings stand for the structures.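 1) Cells in 96-well plates. 2) Compound, 48 h, 5 concentrations. 3) Linear interpolation between surrounding doses. 4) Unreached endpoint = highest concentration. The concentration for 50% growth inhibition is given as GI50. TGI is the concentration that stops growth completely.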

In the case of `COc1cc2nc3cc([N+](=O)[O-])ccc3c(NCCCNCC(C)(C)O)c2cc1OC`, the GI50 in test [1] is 0.505 µM; in [2], 0.32 µM; in test [3] it was 0.176 µM; in test [4], 0.299 µM; in test [5], 0.181 µM; in test [6], 0.4 µM. The GI50 is 0.308 µM in [7], 0.303 µM in test [8], 0.352 µM in [9] and 0.324 µM in test [10]. Further, the TGI in test [1] came out at 2.58 µM; in [2] it was 1.17 µM; in test [3], 0.442 µM; in test [4], 1.04 µM; in test [5], 0.425 µM; in [6], 1.55 µM. The TGI in test [7] was 1.26 µM; in test [8], 1.01 µM; in test [9], 1.5 µM; in test [10], 1.11 µM.
As to `N[C@@H]1CCCN(c2c(/C=C3\SC(=O)NC3=O)cccc2-c2ccccc2)C1`, the GI50 in test [1] was 8.09 µM; in test [2], 13.6 µM; in test [3], 11.6 µM; in [4], 16.9 µM; in test [5] it was 11.5 µM; in test [6] it was 11.4 µM. In addition, the GI50 is 16.1 µM in test [7], 3.3 µM in test [8], 11.1 µM in test [9] and 13.7 µM in [10]. In addition, the TGI in test [1] was 22.2 µM; in test [2] it was 31.8 µM; in test [3] it was 25.5 µM; in test [4] it was 35.3 µM; in test [5], 25.3 µM; in test [6], 24.3 µM. The TGI came out at 33.2 µM in test [7], 15.3 µM in [8], 25.8 µM in [9] and 28.1 µM in [10].
`C#Cc1cccc(Nc2nc3ccc([N+](=O)[O-])cc3nc2Nc2cccc(C#C)c2)c1`: the GI50 was 0.247 µM in [1]; 0.212 µM in [2]; 0.172 µM in test [3]; 0.209 µM in test [4]; 0.209 µM in test [5]; 0.265 µM in test [6]. For the same compound, the GI50 in test [7] was 0.313 µM; in [8] it was 0.18 µM; in test [9], 0.199 µM; in test [10], 0.367 µM. In addition, the TGI was determined as 0.738 µM in test [1]; 1.12 µM in test [2]; 0.345 µM in test [3]; 0.899 µM in test [4]; 0.609 µM in test [5]; 0.838 µM in [6]. Besides, the TGI in test [7] was found to be 1.3 µM; in test [8], 0.482 µM; in test [9], 0.495 µM; in test [10] it was 1.47 µM.
Regarding `Cc1cc(C)nc(SC2=C(Nc3cccc(Cl)c3C)C(=O)N(Cc3ccccc3)C2=O)n1`, the GI50 in test [1], in test [2], in test [3], in test [4], in test [5] and in test [6] was more than 160 µM throughout. Besides, the GI50 in test [7], in [8], in test [9] and in test [10] was more than 160 µM in each case. In addition, the TGI in test [1], in test [2], in test [3], in test [4], in [5] and in [6] was more than 160 µM throughout. Besides, the TGI in [7], in [8], in test [9] and in test [10] was more than 160 µM in each case.
As to `CCCCn1sc(=O)n(Cc2ccc(CNC(=O)OCc3ccc4c(Br)cc(Br)c(O)c4n3)cc2)c1=O`, the GI50 in [1] is 0.23 µM; in [2], 3.76 µM; in [3] it was 24.8 µM; in [4], 0.395 µM; in test [5] it was 0.264 µM; in [6] it was 0.257 µM. In addition, the GI50 is 1.05 µM in test [7], 0.659 µM in [8], 0.37 µM in [9] and 0.4 µM in test [10]. Moreover, the TGI in test [1] is 0.633 µM; in test [2], more than 100 µM; in test [3] it was more than 100 µM; in test [4], more than 100 µM; in test [6] it was 0.731 µM; in test [7] it was more than 100 µM. Also, the TGI in [8] and in test [9] was more than 100 µM each time.
As to `Cc1nc2n(c(=O)c1CCN1CCC(c3noc4cc(F)ccc34)CC1)CCCC2`, the GI50 in test [1], in [2], in test [3], in [4], in test [5] and in test [6] was more than 50 µM each time. Moreover, the GI50 in test [7], in test [8], in [9] and in test [10] was more than 50 µM in each case. Also, the TGI in [1], in test [2], in test [3], in [4], in test [5] and in test [6] was more than 50 µM in each case. Further, the TGI in test [7], in test [8], in test [9] and in test [10] was more than 50 µM in each case.
Consider `C#CCOc1cccc(Nc2ncnc3ccc(NC(=O)CCl)cc23)c1`, for which the GI50 was 2.83 µM in test [1]; 0.225 µM in [2]; 0.463 µM in test [3]; 0.0723 µM in [4]; 0.777 µM in [5]; 1.4 µM in test [6]. Besides, the GI50 in test [7] is 0.674 µM; in test [8], 0.364 µM; in test [9] it was 1.07 µM; in test [10] it was 0.73 µM. The TGI in test [1] was 7.23 µM; in test [2], more than 44 µM; in test [3] it was 16.8 µM; in test [4], 3.08 µM; in test [5] it was 3.97 µM; in test [6], 20.2 µM. Besides, the TGI in [7] stood at 10.3 µM; in [8] it was 8.23 µM; in [9] it was 18.8 µM; in test [10], 14.1 µM.

These data come from PubChem BioAssay (NCI).
